Source: paper PMC4438233, “Antibacterial effects of Traditional Chinese Medicine monomers against Streptococcus pneumoniae via inhibiting pneumococcal histidine kinase (VicK)” (Frontiers in Microbiology, 2015)
Like-named read-outs stand apart in the source and are kept apart here.

Assays:
[1] = Cytotoxicity assay (MTT); format: cell-based; details: African green monkey
Procedure: The cytotoxicity of the drugs to Vero cells (African green monkey kidney cells) was detected as previously described (Huang et al., [2012]) with minor modifications. In 96-well cell culture plates, the cells (~10^3 cells per well) were exposed to the serially diluted drugs for 48 h. Then, relative cell numbers were assayed by co-incubation with 3-(4, 5-dimethylthiazol-2-yl)-2, 5-diphenyltetrazolium bromide for 4 h at 37°C in 5% CO2. Purple formazan salts were dissolved with DMSO after incubation. The absorbance of each well was measured at 595 nm and then converted to percentages of the control (cells treated with 1% DMSO). The concentration of the derivatives with 50% cytotoxicity for Vero cells (CC50) was calculated using GraphPad Prism 5 (San Diego, CA).

[2] = system: S. pneumoniae NCTC7466; assay: Mouse sepsis model, survival time; format: in vivo, BALB/c mice; details: i.p. infection 1 × 10^3 CFU; drug i.p. thrice a day for 3 d; untreated control 28.8 ± 1.25
Procedure: Female BALB/c mice (12–15 per group) aged 4–6 weeks were used to evaluate the antimicrobial effects of the compounds in vivo. In sepsis models, the mice were intraperitoneally infected with 100 μL S. pneumoniae NCTC7466 strain suspension (1 × 10^3 CFU). […] Two control groups were injected with 100 μL 1% DMSO (dissolved the drugs, negative control) or PEN (0.42 mg/kg/d, positive control) following the same injection route. The result was expressed as cumulative survival times following 7 d of observation.

[3] = target: T1, full-length VicK protein (Streptococcus pneumoniae, UniProt Q8DPL8); assay: Inhibition assay for ATPase activity of VicK (Kinase-Glo Luminescent Kinase Assay); format: biochemical; details: 6 μg VicK, 5 μM ATP
T1 construct: 6 His; made in house
T1 sequence (Q8DPL8 whole entry): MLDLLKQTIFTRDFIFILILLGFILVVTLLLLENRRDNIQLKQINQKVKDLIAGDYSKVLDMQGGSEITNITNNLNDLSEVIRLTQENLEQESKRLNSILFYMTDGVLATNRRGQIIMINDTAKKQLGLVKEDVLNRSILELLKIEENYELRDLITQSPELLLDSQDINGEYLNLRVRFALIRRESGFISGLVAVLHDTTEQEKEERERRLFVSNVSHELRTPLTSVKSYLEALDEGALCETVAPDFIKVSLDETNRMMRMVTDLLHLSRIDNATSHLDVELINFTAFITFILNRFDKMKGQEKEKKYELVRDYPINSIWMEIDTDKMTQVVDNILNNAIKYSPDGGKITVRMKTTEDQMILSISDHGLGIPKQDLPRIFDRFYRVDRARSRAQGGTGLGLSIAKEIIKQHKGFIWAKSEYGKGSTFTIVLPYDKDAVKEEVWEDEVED
Procedure: The inhibitory activities of the Chinese medicine monomers for the ATPase activity of the full-length VicK protein were evaluated using the Kinase-Glo™Luminescent Kinase Assay (Promega, Madison, USA). Briefly, 6 μg VicK protein was pre-incubated with a series of dilution of compounds in the reaction buffer at 37°C for 30 min. 5 μM ATP was added and incubated for another 30 min. Kinase-Glo™Reagent was also added to detect the remaining ATP recorded from luminescence measurements (RLU). In parallel, the VicK protein with no addition of compounds was used as a control, and the mixture with compounds excluding the VicK protein served as another control. The rate of protein phosphorylation (Rp) inhibition by the compounds was calculated from Equation (1).
(1) Rp=1−RLU(compound+ATP+Reagent) −RLU(compound+ATP+vick+Reagent)/RLU(ATP +Reagent)−RLU(ATP+vick+Reagent)×100%
The half maximal inhibitory concentration (IC50), which is the concentration of inhibition of 50% VicK protein autophosphorylation, was determined by GraphPad Prism 5 (Qin et al., [2006]).

[4] = system: pneumococcal strains; assay: MIC against clinical pneumococcal strains (penicillin susceptible, intermediate, resistant); format: cell-based, Streptococcus pneumoniae; details: for MIC50 / MIC90: Streptococcus pneumoniae; for MIC50: read-out: MIC of pneumococcal strains, MIC50; for MIC90: read-out: MIC of pneumococcal strains, MIC90
Procedure: (§1) Minimum inhibitory concentration (MIC) assays for the antibacterial activities of the compounds were performed according to the standard […] method of the Clinical and Laboratory Standards Institute of America. MIC testing of drug-resistant S. pneumoniae, drug-resistant S. aureus, streptococci and antimicrobial combination was also performed using the same method. Briefly, the drugs were serially diluted 2-fold into eight wells with C+Y medium, yielding final concentrations ranging from […]. Then 10^6 CFU bacteria were added to each well. Inoculated medium containing 1% DMSO served as a bacterial growth control, whereas uninoculated medium served as a sterility control. The plates were incubated at 37°C for 12–16 h. […] The experiment was repeated three times.

[5] = system: S. pneumoniae NCTC7466; assay: MIC against S. pneumoniae NCTC7466 (D39); format: cell-based; details: Streptococcus pneumoniae, S. pneumoniae NCTC7466 (D39), read-out: MIC
Procedure: as §1

[6] = system: S. pneumoniae; assay: Checkerboard test with erythromycin or tetracycline against S. pneumoniae; format: cell-based, Streptococcus pneumoniae
Procedure: The antimicrobial effects of different combinations of two antimicrobial agents were assayed using the checkerboard test (Bajaksouzian et al., [1997]). Each experiment was repeated thrice. […] The FIC index (FICI) was calculated using the following formula:
(§2) (2) FIC=FICA+FICB=[A]/MICA+[B]/MICB
(§3) where [A] and [B] are the concentrations of drugs A and B, respectively; MICA and FICA are the MIC and FIC of drug A for the organism, respectively; and MICB, and FICB are the MIC and FIC of drug B for the organism, respectively. The FIC index obtained was interpreted as follows: =0.5, synergy; FIC > 2.0, antagonism (Gupta and Kohli, [2003]).

[7] = system: S. mitis; assay: MIC against S. mitis; format: cell-based; details: Streptococcus mitis; S. mitis clinical isolate; 10^6 CFU/ml; read-out: MIC
Procedure: as §1

[8] = system: S. mutans; assay: MIC against S. mutans; format: cell-based; details: Streptococcus mutans; S. mutans clinical isolate; 10^6 CFU/ml; read-out: MIC
Procedure: as §1

[9] = system: S. pyogenes; assay: MIC against S. pyogenes; format: cell-based; details: Streptococcus pyogenes; S. pyogenes clinical isolate; 10^6 CFU/ml; read-out: MIC
Procedure: as §1

[10] = system: S. pseudopneumoniae; assay: MIC against S. pseudopneumoniae; format: cell-based; details: Streptococcus pseudopneumoniae; S. pseudopneumoniae clinical isolate; 10^6 CFU/ml; read-out: MIC
Procedure: as §1

[11] = system: Penicillin-resistant S. pneumoniae strains; assay: Checkerboard test with penicillin against penicillin-resistant S. pneumoniae; format: cell-based, Streptococcus pneumoniae; details: Streptococcus pneumoniae, agent alone, read-out: MIC, Alone
Procedure: as §1
The antimicrobial effects of different combinations of two antimicrobial agents were assayed using the checkerboard test (Bajaksouzian et al., [1997]). Each experiment was repeated thrice. The in vitro interaction between the five drugs with PEN was quantified by the fractional inhibitory concentration (FIC). The FIC index (FICI) was calculated using the following formula:
as §2, §3

[12] = Penicillin intermediate (n = 12)
[13] = in combination with Erythromycin
[14] = in combination with Tetracycline

| Compound | Mean survival of mice ± SEM [2] | MIC of pneumococcal strains, Range [4, 12] | MIC of pneumococcal strains, Range ([4]; Penicillin resistant (n = 15)) | MIC of pneumococcal strains, Range ([4]; Penicillin susceptible (n = 7)) | MIC50 [4, 12] | MIC90 [4, 12] | MIC50 ([4]; Penicillin resistant (n = 15)) | MIC90 ([4]; Penicillin resistant (n = 15)) | MIC50 ([4]; Penicillin susceptible (n = 7)) | MIC90 ([4]; Penicillin susceptible (n = 7)) | MIC [5] | MIC ([5]; value in parentheses) | FICI [6, 13] | FICI [6, 14] | MIC [7] | MIC [8] | MIC [9] | MIC [10] | MIC ([11]; strain 652336) | MIC ([11]; strain 736007) | other results |
| --- | --- | --- | --- | --- | --- | --- | --- | --- | --- | --- | --- | --- | --- | --- | --- | --- | --- | --- | --- | --- | --- |
| CSC[C@H]1O[C@@H](n2cnc3c(N)ncnc32)[C@H](O)[C@@H]1O [Compound 1, 5′-(Methylthio)-5′-deoxyadenosine] | 49.5 ± 3.93 h | 74 to 594 µg/mL | 296.8 to 593.6 µg/mL | 74 to 148 µg/mL | 148 µg/mL | 296 µg/mL | 297 µg/mL | 297 µg/mL | 74 µg/mL | 148 µg/mL | 37.1 µg/mL | 124 µM | 2 | 0.9 | 148 µg/mL | 594 µg/mL | 148 µg/mL | 148 µg/mL | 297 µg/mL | 297 µg/mL | CC50 at 48 h ([1]; Vero cells (African green monkey kidney cells)): > 16000 µM; IC50 ([3]; read-out: IC50 (inhibition of VicK ATPase activity / autophosphorylation) (converted)): 3.8 µM; IC50 ([3]; value in parentheses, read-out: IC50 (inhibition of VicK ATPase activity / autophosphorylation) (converted)): 3.77 µM; MIC ([11]; strain 8364981): 148 µg/mL; MIC ([11]; strain 12092624): 297 µg/mL |
| CCCCCCCC=NNc1ccc([N+](=O)[O-])cc1[N+](=O)[O-] [Compound 2, Octanal 2,4-dinitrophenylhydrazone] | 42.1 ± 4.1 h | 38 to 154 µg/mL | 77 to 616 µg/mL | 76 to 152 µg/mL | 77 µg/mL | 154 µg/mL | 308 µg/mL | 616 µg/mL | 152 µg/mL | 152 µg/mL | 38.5 µg/mL | 125 µM | 2 | 0.75 | 308 µg/mL | 616 µg/mL | 308 µg/mL | 154 µg/mL | 154 µg/mL | 154 µg/mL | CC50 at 48 h ([1]; Vero cells): > 4000 µM; IC50 ([3]; IC50 (inhibition of VicK ATPase activity / autophosphorylation)): 5.4 µM; IC50 ([3]; IC50 (inhibition of VicK ATPase activity / autophosphorylation), value in parentheses): 5.35 µM; MIC ([11]; strain 8364981): 77 µg/mL; MIC ([11]; strain 12092624): 154 µg/mL |
